Data on three molecules can be found in publication PMC8760490, “Discovery of novel furanylbenzamide inhibitors that target oncogenic tyrosine phosphatase SHP2 in leukemia cells” (The Journal of Biological Chemistry, 2021).

Experiment [1] has as its target T1, SHP2 catalytic domain (SHP2cat; residues 248–527) (Homo sapiens, UniProt Q06124).
T1 construct: the SHP2 catalytic domain (SHP2cat; residues 248–527); made in house
T1 sequence (Q06124 248-527): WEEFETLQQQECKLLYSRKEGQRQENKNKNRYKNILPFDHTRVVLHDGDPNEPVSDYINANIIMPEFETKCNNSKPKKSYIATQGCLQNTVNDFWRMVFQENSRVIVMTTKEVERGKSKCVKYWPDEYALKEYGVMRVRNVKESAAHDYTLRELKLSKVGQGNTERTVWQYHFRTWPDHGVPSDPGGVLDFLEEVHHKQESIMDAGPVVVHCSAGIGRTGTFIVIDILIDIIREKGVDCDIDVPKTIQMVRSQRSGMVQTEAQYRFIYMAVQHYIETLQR
Nature of the experiment: DiFMUP fluorescence phosphatase inhibition assay, SHP2cat. It counts as biochemical. Conditions: DiFMUP at Km (20 μM), pH 6.0; read-out: SHP2cat; IC50. From the text:
(§1) To test the synthesized compounds for their potential to inhibit SHP2 activity, a fluorescence intensity-based assay using 6,8-difluoro-4-methylumbelliferyl phosphate (DiFMUP) as the substrate was adapted for three recombinant SHP2 constructs: (1) the SHP2 catalytic domain (SHP2cat; residues 248–527), (2) the full-length SHP2-E76K oncogenic mutant, and (3) the full-length SHP2 WT (SHP2-WT). The recombinant SHP2 proteins were expressed and purified as described previously ([36]). A dually phosphorylated peptide derived from the insulin receptor substrate 1 (IRS-1) served as a surrogate binding protein and was used to activate SHP2-WT ([30], [36]). […] Michaelis–Menten experiments to determine the DiFMUP Michaelis–Menten constant (Km) for each SHP2 construct were performed as described previously ([36]) and yielded the following values: SHP2-WT, Km = 60 μM; SHP2-E76K, Km = 20 μM; and SHP2cat, Km = 20 μM. Relative maximum rates (Vmax) of the DiFMUP reactions expressed as relative fluorescence units per minute (RFU/min) were as follows: SHP2-WT, Vmax = 871 RFU/min; SHP2-E76K, Vmax = 2730 RFU/min; and SHP2cat, Vmax = 2912 RFU/min. IC50 values for each compound were determined from initial rates in 10-point dose–response assays using DiFMUP at a concentration corresponding to its Km value for the respective SHP2 construct. […] Replacements for the benzothiophenone were explored using analog #10.
(§2) Recombinant human full-length SHP2 (1–594) WT and E76K mutants, as well as the SHP2cat (248–527), were expressed and purified as described before ([36], [41]). Recombinant human PTP1B (1–300) and the codon-optimized STEP (280–566) catalytic domains were cloned into PET-15b and expressed as N-His-tagged fusion proteins. For expression, transformed BL21(DE3) cells were grown and induced similar as described for SHP2. Collected cells were resuspended in lysis buffer (25 mM Tris, pH 7.5, 300 mM NaCl, 50 mM imidazole, and 10% glycerol) with 100 mg/l RNaseA and were lysed with two passages using a microfluidizer. The lysate was clarified by centrifugation at 15,000g for 50 min and applied to nickel–nitrilotriacetic acid resin. The column resin was washed, and the PTP1B or STEP protein was eluted in lysis buffer at 300 mM imidazole. The PTP1B or STEP protein was further purified by S75 size-exclusion chromatography in 50 mM Tris, pH 7.5, 50 mM NaCl. The eluted peak fractions were supplemented with tris(2-carboxyethyl)phosphine to 10 mM, concentrated by ultrafiltration, and stored at −80 °C. The purified yield of PTP1B was 33 mg/l cell culture; the yield of STEP was 16 mg/l cell culture.
(§3) SHP2 inhibitors were tested at RT in a 384-well plate format standard phosphatase fluorescence intensity assay using DiFMUP (Invitrogen/Thermo Fisher Scientific) as a substrate and a total reaction volume of 25 μl. SHP2 inhibitors or vehicle (DMSO) were spotted in triplicate into a black Greiner FLUOTRAC 200 384-well microplate (catalog no.: 781076; Greiner) for a 10-point dose–response assay using an Echo 555 Liquid Handler (Labcyte, Inc). PTP working solutions were prepared at a 0.625 nM concentration (for a final concentration of 0.5 nM) in buffer containing 50 mM Bis–Tris, pH 6.0, 50 mM NaCl, 5 mM DTT, and 0.01% Tween-20. Prior to the assay, a dually phosphorylated IRS-1 peptide (625 nM [500 nM final] ([30])) was added to full-length WT SHP2 working solutions and incubated for 20 min. DiFMUP working solutions at 5× final concentration were prepared in 50 mM Bis–Tris, pH 6.0, 50 mM NaCl, and 0.01% Tween-20. About 20 μl of PTP working solution was dispensed into the microplate and incubated with inhibitor for 20 min at RT. […] The reaction was initiated by addition of 5 μl DiFMUP working solutions. Fluorescence intensity was measured in kinetic mode (every minute for 7 or 10 min) using a Tecan Spark Multimode Microplate Reader (Tecan) with an excitation wavelength of 360 nm and an emission wavelength of 460 nm. […]

Experiment [2] has as its target T2, full-length SHP2 WT (SHP2-WT) (Homo sapiens, UniProt Q06124).
T2 construct: Recombinant human full-length SHP2 (1–594) WT and E76K mutants; made in house
Put plainly: DiFMUP fluorescence phosphatase inhibition assay, SHP2-WT activated with IRS-1 peptide. The class given is biochemical. Conditions: DiFMUP at Km (60 μM), pH 6.0.
Text: as §1, §2, §3

In experiment [3] the target is T3, full-length SHP2-E76K oncogenic mutant (Homo sapiens, UniProt Q06124, E76K).
T3 construct: Recombinant human full-length SHP2 (1–594) WT and E76K mutants; made in house
T3 sequence (Q06124 1-593 E76K): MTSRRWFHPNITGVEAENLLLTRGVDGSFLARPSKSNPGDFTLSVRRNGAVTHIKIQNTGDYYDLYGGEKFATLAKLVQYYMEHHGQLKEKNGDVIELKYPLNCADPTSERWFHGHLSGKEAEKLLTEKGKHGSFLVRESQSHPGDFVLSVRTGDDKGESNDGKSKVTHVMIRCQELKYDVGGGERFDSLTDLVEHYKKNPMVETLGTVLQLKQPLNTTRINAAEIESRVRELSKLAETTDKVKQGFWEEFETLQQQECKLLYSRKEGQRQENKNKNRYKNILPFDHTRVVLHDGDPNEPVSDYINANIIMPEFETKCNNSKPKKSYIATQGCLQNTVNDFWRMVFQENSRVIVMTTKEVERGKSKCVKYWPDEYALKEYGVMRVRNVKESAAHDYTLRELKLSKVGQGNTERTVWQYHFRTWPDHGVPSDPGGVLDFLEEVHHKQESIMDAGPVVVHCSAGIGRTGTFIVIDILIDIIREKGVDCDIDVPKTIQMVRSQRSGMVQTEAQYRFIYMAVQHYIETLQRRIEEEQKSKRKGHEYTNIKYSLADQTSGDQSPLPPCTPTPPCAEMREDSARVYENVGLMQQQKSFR
Put plainly: DiFMUP fluorescence phosphatase inhibition assay, SHP2-E76K. The class given is biochemical. Conditions: DiFMUP at Km (20 μM), 10-point dose–response, pH 6.0.
Text: as §1, §2, §3

Experiment [4] deals with KYSE-520 esophageal cancer cells. Nature of the experiment: Cell viability (CellTiter-Glo), KYSE-520. The class given is cell-based. Conditions: various concentrations, 3 days. On the procedure:
(§4) Inhibition of SHP2 has been reported to inhibit the growth of cancer cells including Kasumi-1 acute myeloid leukemia (AML) and KYSE-520 esophageal cancer cells ([30]). […] Thus, we treated two TNBC cell lines, BT-549 and MDA-MB-468, with SBI-4668 or the SHP2 allosteric inhibitor SHP099 at various concentrations and determined cell viability after 72 h, compared with the vehicle control (Fig. 4C). […] Next, we performed an 11-day colony formation assay with TNBC cells treated with SBI-4668 or SHP099 at 5, 10, or 20 μM (Fig. 4D).
(§5) Viability of AML and esophageal carcinoma cells was assessed using the ATP-depletion assay CellTiter-Glo (Promega). Cells were harvested at 1 × 10^6/ml to 2 × 10^6 cells/ml with cell numbers determined by trypan blue using the Countess Cell counter (Thermo Scientific) and resuspended in culture media. About 3000 cells (in 20 μl) were seeded in a 384-well format white and clear-bottom microplate (catalog no.: 781098; Greiner) spotted with test compound or vehicle control (DMSO) using an Echo 555 Liquid Handler. Cells were incubated for 3 days, before 10 μl of CellTiter-Glo reagent mix was added to each well and incubated for 10 min at RT. Luminescence was read on a Tecan Spark Multimode Microplate Reader, and data were analyzed using GraphPad Prism software.
A general note: In ATP-based viability assays light output follows the ATP content of the culture.

Experiment [5] relates to Kasumi-1 acute myeloid leukemia (AML) cells. Nature of the experiment: Cell viability (CellTiter-Glo), Kasumi-1. It counts as cell-based. Conditions: various concentrations, 3 days. On the procedure:
as §4, §5

For experiment [6], the system named is MDA-MB-468 TNBC cells. Put plainly: 11-day colony formation assay, MDA-MB-468. The class given is cell-based. Conditions: 5, 10 or 20 μM, 11 days. On the procedure:
as §4
(§6) MDA-MB-468 and […] triple-negative breast cancer cells were maintained in Dulbecco's modified Eagle's medium + 10% FBS supplemented with 1× penicillin–streptomycin/L-glutamine (Omega Scientific). About 1500 cells (in 300 μl) were seeded per well of a standard 24-well tissue culture plate (Falcon) and allowed to adhere for 24 h, before the addition of compound(s) as described. After a further 96 h, media were replaced with fresh media containing the same test compounds and concentrations. After 11 days, media were removed, and cells stained with 0.5% crystal violet (in 20% methanol; Sigma) for 20 min with agitation at 80 rpm. Stain was removed, and plates with stained cells were washed by being submerged in excess deionized water and allowed to air dry overnight before imaging.

The subject of experiment [7] is BT-549 TNBC cells. Nature of the experiment: 11-day colony formation assay, BT-549. It counts as cell-based. Conditions: 5, 10 or 20 μM, 11 days. On the procedure:
as §4, §6

Experiment [8] has as its system MOLM-13 AML cells. Put plainly: Cell viability (CellTiter-Glo), MOLM-13. The class given is cell-based. Conditions: 72 h, 30 μM to 58 nM, regular MOLM-13 expressing WT SHP2 (Fig. 4G); read-out: MOLM-13 cell viability IC50 (parallel to SHP2 KO). On the procedure: as §4
Finally, we evaluated the selectivity of our top two compounds, SBI-2130 and SBI-4668, on MOLM-13 AML cells in which SHP2 was depleted using CRISPR–Cas9 KO. High-efficiency Cas9-editing MOLM-13 cells were generated by transducing MOLM-13 cells with a Cas9 lentiviral construct. Stable clones were tested for editing efficiency by performing tracking of indels by decomposition analysis ([45]), and these MOLM-13-Cas9 cells were transduced with a lentiviral construct containing an AAVS1 single-guide RNA (sgRNA) and an mCherry reporter for bulk sorting of cells with successful AAVS1 editing. SHP2 KO was achieved by transducing MOLM-13-Cas9-mCherry cells with a lentivirus, containing SHP2 dual sgRNAs, resulting in ∼80% reduction of SHP2 protein levels (Fig. 4G). SBI-2130, SBI-4668, and the SHP2 allosteric inhibitor, SHP099, were tested in parallel on regular MOLM-13 cells (expressing WT SHP2) and MOLM-13-Cas9-mCherry cells with SHP2 KO. Cells were treated with inhibitors at various concentrations (ranging from 30 μM to 58 nM) or vehicle control (DMSO) for 72 h, before cell viability was assessed.
as §5, with “Cells were incubated for 3 days, before 10 μl of CellTiter-Glo reagent mix was added to each well and incubated for 10 min at RT.” left out
For SHP2 KO, dual sgRNAs targeting SHP2 were cloned in the pLentiGuide puro vector (Addgene plasmid no. 52963 from Dr Feng Zhang) using a published protocol ([50]). […] SHP2 KO was evaluated by immunoblotting. […] For SHP2 KO, MOLM-13-Cas9-mCherry cells were seeded in nontreated 6-well plates (2 × 10^6 cells/well in 2.5 ml), with cell numbers determined by trypan blue using the Countess Cell Counter (Thermo Scientific). […]

The subject of experiment [9] is BT-549 TNBC cells. Nature of the experiment: TNBC cell viability (CellTiter-Glo), BT-549. Conditions: various concentrations. The class given is cell-based. The procedure:
as §4
(§7) Triple-negative breast cancer cell viability was assessed using the ATP-depletion assay CellTiter-Glo. Briefly, 2500 cells in 25 μl media (RPMI + 10% FBS + 1× penicillin–streptomycin [Omega Scientific]) were seeded per well of a 384-well tissue culture–treated plate (Greiner). About 25 nl of 1000× test compound were added using a Labcyte Echo acoustic dispenser, and the cells were incubated for 5 days before addition of 10 μl of CellTiter-Glo reagent as described by the manufacturer. Luminescence was detected on a BioTek Synergy 2 microplate reader, and the values normalized to those of vehicle (DMSO)-treated controls before being plotted using GraphPad Prism.

Experiment [10] concerns MDA-MB-468 TNBC cells. Put plainly: TNBC cell viability (CellTiter-Glo), MDA-MB-468. Conditions: various concentrations. It counts as cell-based. The procedure: as §4, §7

As to `O=C(O)c1cc(-c2ccc(C=C3Cc4ccccc4C3=O)o2)ccc1O` [SBI-3204, 2-Hydroxy-5-(5-((1-oxo-1,3-dihydro-2H-inden-2-ylidene)methyl)furan-2-yl)benzoic acid], the IC50 in experiment [1] came out at 4.5 µM; in experiment [2], 15 µM; in [3] it was 10 µM.
As to `CC(C)NC(=O)c1cccc(-c2ccc(/C=C3\Sc4ccccc4C3=O)o2)c1` [SBI-9639, (Z)-N-isopropyl-3-(5-((3-oxobenzo[b]thiophen-2(3H)-ylidene)methyl)furan-2-yl)benzamide], in [4], the “effect on KYSE-520 cell growth” value was “no notable effects”. In addition, the “effect on Kasumi-1 cell growth” value in experiment [5] is recorded as “no notable effects”. For the same molecule, the IC50 in experiment [2] was more than 100 µM.
Consider `CC1(N)CCN(c2cnc(-c3cccc(Cl)c3Cl)c(N)n2)CC1` [SHP099, reference compound], for which, in experiment [6], the “colony formation, MDA-MB-468” value is on record as “very weak effect”. Further, the “colony formation, BT-549” value in experiment [7] is reported as “very weak effect”. Further, the IC50 in experiment [8] was determined as 9.4 µM. For the same molecule, in experiment [9], the “effect on BT-549 cell viability” value is reported as “very minor effect”. Further, the “effect on MDA-MB-468 cell viability” value in [10] is given as “very minor effect”.
